Reference: paper PMC8591627 (ACS infectious diseases, 2021)
“And” between values parts separate entries of the source, which are not always exact repeats. Identical values can stand only once.

Key:
MRSA ATCC 43300 = assay: MIC, drug susceptibility assay; type: cell-based, Staphylococcus aureus; conditions: 18 h; for MRSA ATCC 43300 MIC: 37 °C, visual inspection
MSSA ATCC 25923 = assay: MIC, drug susceptibility assay; type: cell-based, Staphylococcus aureus; conditions: 18 h, 37 °C, visual inspection
Vero cells = type: cell-based; conditions: 72 h; for CC50: read-out: Vero cell CC50
S. aureus = conditions: 8x MIC; ref [13], [35]–[36]; cited from earlier work
MRSA COL strain = assay: Mouse peritonitis-sepsis model; type: in vivo, Staphylococcus aureus; conditions: single dose 100 mg/kg subcutaneous
[1] = tested on: JSF-3151–resistant strains; assay: MIC versus JSF-3151-resistant strains compared to the parental strain; type: cell-based, Staphylococcus aureus

CN(C)c1nnc(-c2ccc(NC(=O)c3ccc([N+](=O)[O-])o3)cc2)o1 [JSF-3157]
MRSA ATCC 43300 MIC (MRSA ATCC 43300; listed as Z1542057255 (3157)): 6.2 μg/mL and 18 μM | MSSA ATCC 25923 MIC (MSSA ATCC 25923; listed as Z1542057255 (3157)): 6.2 μg/mL and 18 μM | Vero cell CC50 (Vero cells): 0.78 µg/mL | CC50 (Vero cells): 2 µM

Nc1ccc(C(=O)Nc2cc(Cl)cc3cccnc23)s1 [JSF-3640, 5-amino-N-(6-chloroquinolin-8-yl)thiophene-2-carboxamide]
MIC (MRSA ATCC 43300; Staphylococcus aureus, ATCC43300|MRSA, read-out: MRSA ATCC 43300 MIC): > 50 µg/mL

CN[C@H](CC(C)C)C(=O)N[C@H]1C(=O)N[C@@H](CC(N)=O)C(=O)N[C@H]2C(=O)N[C@H]3C(=O)N[C@H](C(=O)N[C@H](C(=O)O)c4cc(O)cc(O)c4-c4cc3ccc4O)[C@H](O)c3ccc(c(Cl)c3)Oc3cc2cc(c3O[C@@H]2O[C@H](CO)[C@@H](O)[C@H](O)[C@H]2O[C@H]2C[C@](C)(N)[C@H](O)[C@H](C)O2)Oc2ccc(cc2Cl)[C@H]1O [vancomycin]
resistance frequency (S. aureus): 1 x 10^−9 to 1 x 10^−6 | mice surviving 3 d post-administration (MRSA COL strain): 12/12 | MIC versus JSF-3151–resistant strains compared to parental strain [1]: same MIC

O=C(Nc1cccc(N2CCOC2=O)c1)c1ccc([N+](=O)[O-])o1 [JSF-3153]
MRSA ATCC 43300 MIC (MRSA ATCC 43300; listed as Z364195972 (3153)): 3.1 μg/mL and 10 μM | MSSA ATCC 25923 MIC (MSSA ATCC 25923; listed as Z364195972 (3153)): 6.2 μg/mL and 20 μM | Vero cell CC50 (Vero cells): 1.6 µg/mL | CC50 (Vero cells): 5 µM

CO[C@H]1/C=C/O[C@@]2(C)Oc3c(C)c(O)c4c(O)c(c(/C=N/N5CCN(C)CC5)c(O)c4c3C2=O)NC(=O)/C(C)=C\C=C\[C@H](C)[C@H](O)[C@@H](C)[C@@H](O)[C@@H](C)[C@H](OC(C)=O)[C@@H]1C [Rifampicin]
MIC versus JSF-3151–resistant strains compared to parental strain [1]: same MIC

CC[C@H]1OC(=O)[C@H](C)[C@@H](O[C@H]2C[C@@](C)(OC)[C@@H](O)[C@H](C)O2)[C@H](C)[C@@H](O[C@@H]2O[C@H](C)C[C@H](N(C)C)[C@H]2O)[C@](C)(O)C[C@@H](C)C(=O)[C@H](C)[C@@H](O)[C@]1(C)O [erythromycin]
MIC versus JSF-3151–resistant strains compared to parental strain [1]: same MIC

C[C@H]1c2cccc(O)c2C(=O)C2=C(O)[C@]3(O)C(=O)C(C(N)=O)=C(O)[C@@H](N(C)C)[C@@H]3[C@@H](O)[C@@H]21 [Doxycycline]
MIC versus JSF-3151–resistant strains compared to parental strain [1]: same MIC

CC1(C)S[C@@H]2[C@H](NC(=O)[C@H](N)c3ccccc3)C(=O)N2[C@H]1C(=O)O [Ampicillin]
MIC versus JSF-3151–resistant strains compared to parental strain [1]: same MIC

CC(=O)NC[C@H]1CN(c2ccc(N3CCOCC3)c(F)c2)C(=O)O1 [linezolid]
resistance frequency (S. aureus): 1 x 10^−9 to 1 x 10^−6

O=C(O)c1cn(C2CC2)c2cc(N3CCNCC3)c(F)cc2c1=O [ciprofloxacin]
resistance frequency (S. aureus): 1 x 10^−9 to 1 x 10^−6

CC(=O)N1CCN(c2cc3c(cc2F)c(=O)c(C(=O)N2CCCc4ccccc42)cn3C2CC2)CC1 [JSF-3145]
MRSA ATCC 43300 MIC (MRSA ATCC 43300; listed as Z27692293 (3145)): 12 μg/mL and 25 μM | MSSA ATCC 25923 MIC (MSSA ATCC 25923; listed as Z27692293 (3145)): 12 μg/mL and 25 μM | Vero cell CC50 (Vero cells): > 50 µg/mL | CC50 (Vero cells): > 100 µM
